Data on 22 compounds can be found in US8426588B2, “Phenylalanine derivatives” (Ajinomoto Co, Inc., priority 2000, dated 2013).

Each structure is given as a SMILES string.

One test concerns the target T1, integrin α4β1 (Homo sapiens, UniProt P05556+P13612).
T1 construct: cell strain Jurkat (ATCC TIB-152) of human T cells, known to express integrin α4β1; endogenous in cells; host or cells: Jurkat (ATCC TIB-152)
The test is described as follows: VCAM antagonist activity (VCAM-1/α4β1 binding assay), Jurkat cells binding to VCAM-1. Format: cell-based. To be noted: Jurkat human T cells binding to recombinant human VCAM-1; read-out: VCAM antagonistic activity (IC50) α4β1. Here is the method: VCAM Antagonist Activity (VCAM-1/α4β1 Binding Assay)
The capacity of a test substance antagonistic to the binding of cell strain Jurkat (ATCC TIB-152) of human T cells, known to express integrin α4β1, to VCAM-1 was determined.
(§1) 100 μl/well of a solution (500 ng/ml) of recombinant human VCAM-1 (R & D systems) solution diluted with buffer A (0.1 M NaHCO3, pH 9.6) was added to a micro titer plate having 96 wells (Nunc Maxisorp). After the incubation at 4° C. overnight, unbound VCAM-1 was removed by washing once with PBS. After completion of the washing, a buffer (buffer B) obtained by diluting Block Ace (Dainippon Pharmaceutical Co., Ltd.) with PBS to ¼ concentration was added in an amount of 150 μl/well. After the incubation at room temperature for 1 hour, buffer B was removed and the plate was washed with PBS once.
Jurkat cells were washed with Dulbecco modified Eagle medium (SIGMA, hereinafter referred to as “DMEM”) twice and then incubated in DMEM containing 10 μg/ml of Calcein-AM (Wako Pure Chemical Industries, Ltd.) at 37° C. in dark place for 30 minutes to label with fluorescence. The cells were again suspended in a binding buffer (20 mM HEPES, DMEM containing 0.1% BSA).
(§2) 50 μl of a test substance of various concentrations obtained by the dilution with the binding buffer was added to the plate. Immediately thereafter, 50 μl (final volume: 100 μl/well) of the fluorescent Jurkat cells (4×10^6 cells/ml) were added thereto, and they were incubated in dark place at room temperature for 30 minutes. After the shaking on a plate shaker (IKA MTS-4) at 800 rpm for 30 seconds, the solution was immediately removed to remove the unbound cells. The fluorescence quantity of the bound cells remaining in the wells was determined with a fluorescent plate reader (Wallac 1920 ARVO multi-label counter) (filter excitation wave length: 485 nm, emission wave length: 535 nm). The fluorescent strength thus obtained is proportional to the number of Jurkat cells bound to VCAM-1 and remaining on the plate. The binding rate of each test material in various concentrations was determined while the fluorescent strength of the test material-free well was determined to be 100%.

A further test concerns the target T2, integrin α4β7 (Homo sapiens, UniProt P13612+P26010).
T2 construct: lymphoma cell strain RPMI-8866 of human B cells, known to express integrin α4β7; endogenous in cells; host or cells: RPMI-8866
T2 sequence (P13612 34-1032): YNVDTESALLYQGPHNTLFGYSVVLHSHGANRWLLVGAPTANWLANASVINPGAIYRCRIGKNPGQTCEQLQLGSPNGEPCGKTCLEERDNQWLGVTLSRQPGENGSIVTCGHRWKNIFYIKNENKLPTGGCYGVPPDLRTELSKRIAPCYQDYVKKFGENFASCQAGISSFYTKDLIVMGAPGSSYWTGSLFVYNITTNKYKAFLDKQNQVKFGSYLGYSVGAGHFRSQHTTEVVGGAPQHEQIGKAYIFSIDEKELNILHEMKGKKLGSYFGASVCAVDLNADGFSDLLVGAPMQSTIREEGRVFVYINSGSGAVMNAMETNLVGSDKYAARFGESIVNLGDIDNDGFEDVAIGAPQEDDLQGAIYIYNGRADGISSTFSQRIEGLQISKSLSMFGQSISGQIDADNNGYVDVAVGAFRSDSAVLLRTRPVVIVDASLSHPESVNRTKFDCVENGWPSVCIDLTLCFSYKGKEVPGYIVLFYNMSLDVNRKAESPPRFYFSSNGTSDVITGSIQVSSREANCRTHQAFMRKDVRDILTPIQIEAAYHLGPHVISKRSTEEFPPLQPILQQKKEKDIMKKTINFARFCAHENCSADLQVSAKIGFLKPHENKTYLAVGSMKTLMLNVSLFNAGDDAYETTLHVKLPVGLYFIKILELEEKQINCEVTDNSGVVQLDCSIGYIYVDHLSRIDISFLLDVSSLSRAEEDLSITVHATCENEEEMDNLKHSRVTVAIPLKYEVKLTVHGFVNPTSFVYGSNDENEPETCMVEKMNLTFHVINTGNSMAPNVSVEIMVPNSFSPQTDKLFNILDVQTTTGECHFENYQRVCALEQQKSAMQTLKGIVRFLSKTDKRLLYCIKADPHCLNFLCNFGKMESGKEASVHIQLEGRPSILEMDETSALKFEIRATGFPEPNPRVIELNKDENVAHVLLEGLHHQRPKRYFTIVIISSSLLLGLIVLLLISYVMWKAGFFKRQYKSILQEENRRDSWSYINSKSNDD
T2 sequence (P26010 20-798): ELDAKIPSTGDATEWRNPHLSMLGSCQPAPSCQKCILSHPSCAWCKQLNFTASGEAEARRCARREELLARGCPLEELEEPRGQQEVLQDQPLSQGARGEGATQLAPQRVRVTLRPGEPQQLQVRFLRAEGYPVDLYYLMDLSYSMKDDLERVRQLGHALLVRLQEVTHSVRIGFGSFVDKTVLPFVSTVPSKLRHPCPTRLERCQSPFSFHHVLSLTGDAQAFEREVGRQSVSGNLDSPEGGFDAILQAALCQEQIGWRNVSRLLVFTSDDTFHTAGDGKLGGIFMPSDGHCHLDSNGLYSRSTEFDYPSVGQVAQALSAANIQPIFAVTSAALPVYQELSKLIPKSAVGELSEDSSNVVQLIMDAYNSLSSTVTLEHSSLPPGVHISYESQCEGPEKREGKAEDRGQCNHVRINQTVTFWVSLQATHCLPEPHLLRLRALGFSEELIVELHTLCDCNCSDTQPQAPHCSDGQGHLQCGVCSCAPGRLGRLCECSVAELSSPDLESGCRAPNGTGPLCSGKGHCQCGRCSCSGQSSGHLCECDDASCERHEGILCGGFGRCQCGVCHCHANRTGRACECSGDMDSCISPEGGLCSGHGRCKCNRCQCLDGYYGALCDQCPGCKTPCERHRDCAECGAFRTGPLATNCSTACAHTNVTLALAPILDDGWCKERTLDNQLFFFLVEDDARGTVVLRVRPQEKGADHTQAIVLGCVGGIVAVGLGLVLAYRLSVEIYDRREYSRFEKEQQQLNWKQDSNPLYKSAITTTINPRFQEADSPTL
The test is described as follows: VCAM antagonistic activity (VCAM-1/α4β7 binding assay), RPMI-8866 cells binding to VCAM-1. Format: cell-based. To be noted: RPMI-8866 human B lymphoma cells binding to recombinant human VCAM-1; binding buffer with 4 mM MnCl2. Here is the method:
VCAM Antagonistic Activity (VCAM-1/α4β7 Binding Assay)
The capacity of a test substance antagonistic to the binding of lymphoma cell strain RPMI-8866 of human B cells, known to express integrin α4β7, to VCAM-1 was determined.
as §1
RPMI-8866 cells were washed with DMEM twice and incubated in Dulbecco modified Eagle medium containing 10 μg/ml of Calcein-AM (Wako Pure Chemical Industries, Ltd.) (SIGMA, hereinafter referred to as “DMEM”) in dark place at 37° C. for 30 minutes to label with fluorescence. The cells were again suspended in a binding buffer (20 mM HEPES, DMEM containing 0.1% BSA) containing 4 mM of MnCl2.
as §2, with “RPMI-8866” for “Jurkat”, “1420” for “1920”

T1 sequence (P05556 21-798, one chain of several): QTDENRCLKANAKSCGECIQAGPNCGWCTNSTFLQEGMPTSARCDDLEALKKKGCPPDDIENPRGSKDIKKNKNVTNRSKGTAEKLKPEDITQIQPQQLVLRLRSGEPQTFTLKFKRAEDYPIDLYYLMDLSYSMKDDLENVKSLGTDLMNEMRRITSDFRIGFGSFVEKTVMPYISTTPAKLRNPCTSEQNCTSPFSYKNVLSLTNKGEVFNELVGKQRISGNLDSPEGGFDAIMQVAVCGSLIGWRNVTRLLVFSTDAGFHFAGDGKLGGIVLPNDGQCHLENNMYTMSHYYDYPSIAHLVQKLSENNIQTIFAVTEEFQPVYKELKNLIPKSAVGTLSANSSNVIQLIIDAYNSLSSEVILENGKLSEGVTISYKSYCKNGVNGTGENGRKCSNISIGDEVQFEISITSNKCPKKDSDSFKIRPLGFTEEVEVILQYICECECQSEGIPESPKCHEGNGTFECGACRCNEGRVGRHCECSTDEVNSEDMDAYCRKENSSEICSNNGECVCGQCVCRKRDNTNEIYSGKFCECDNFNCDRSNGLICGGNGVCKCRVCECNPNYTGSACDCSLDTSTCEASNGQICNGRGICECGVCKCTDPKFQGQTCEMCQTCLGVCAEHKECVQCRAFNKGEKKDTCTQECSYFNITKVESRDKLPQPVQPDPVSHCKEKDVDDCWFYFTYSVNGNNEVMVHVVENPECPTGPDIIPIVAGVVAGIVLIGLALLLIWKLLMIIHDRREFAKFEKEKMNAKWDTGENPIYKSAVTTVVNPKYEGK

A word on the IC50: it is the midpoint of a concentration-inhibition curve. In the case of `O=C(N[C@@H](Cc1ccc(-n2c(=O)c3cc([N+](=O)[O-])ccc3n(C3CCC3)c2=O)cc1)C(=O)O)c1c(Cl)cccc1Cl` [Example 59], the IC50 stood at 540 nM at integrin α4β1 and 35.8 nM on integrin α4β7.

`Cn1c(=O)n(-c2ccc(C[C@H](NC(=O)[C@H]3CC[C@H](C(=O)O)CC3)C(=O)O)cc2)c(=O)c2ccccc21` [Example 13]: the figures for the IC50 at integrin α4β1 and on integrin α4β7 were 220 nM and 4.5 nM, respectively.

On to `CCSc1nc2ccccc2c(=O)n1-c1ccc(C[C@H](NC(=O)c2c(Cl)cccc2Cl)C(=O)O)cc1` [Example 17], for which the IC50 at integrin α4β1 came out at 2100 nM; on integrin α4β7, 43 nM.

With `O=C(N[C@@H](Cc1ccc(-n2c(=O)oc3c(ccc4ccccc43)c2=O)cc1)C(=O)O)c1c(Cl)cccc1Cl` [Example 137], the values for the concentration for half-maximal inhibition (IC50) on integrin α4β1 and at integrin α4β7 were 2120 nM and 11.2 nM, respectively.

As for `Cn1c(=O)n(-c2ccc(C[C@H](NC(=O)C3CCCCC3)C(=O)O)cc2)c(=O)c2ccccc21` [Example 12], the values for the 50% inhibitory concentration (IC50) on integrin α4β1 and on integrin α4β7 were 490 nM and 19 nM, respectively.

Consider `O=C(N[C@@H](Cc1ccc(-n2c(=O)oc3ccccc3c2=O)cc1)C(=O)O)c1c(Cl)cccc1Cl` [Example 136], for which the concentration for half-maximal inhibition (IC50) on integrin α4β1 turned out to be 565 nM; on integrin α4β7, 3 nM.

In the case of `Cc1cccc2c1c(=O)n(-c1ccc(C[C@H](NC(=O)c3c(Cl)cccc3Cl)C(=O)O)cc1)c(=O)n2Cc1ccccc1` [Example 97], the half-maximal inhibitory concentration (IC50) on integrin α4β1 was determined as 1500 nM; at integrin α4β7 it was 13 nM.

Regarding `CCCCc1nc2ccccc2c(=O)n1-c1ccc(C[C@H](NC(=O)c2c(Cl)cccc2Cl)C(=O)O)cc1` [Example 34], the IC50 is 2210 nM at integrin α4β1 and 42 nM on integrin α4β7.

Regarding `COc1cccc2c(=O)n(-c3ccc(C[C@H](NC(=O)c4c(Cl)cccc4Cl)C(=O)O)cc3)c(=O)[nH]c12` [Example 46], the IC50 amounted to 195 nM at integrin α4β1 and 6.8 nM at integrin α4β7.

`O=C(N[C@@H](Cc1ccc(-n2c(=O)[nH]c3cccc(Cl)c3c2=O)cc1)C(=O)O)c1c(Cl)cccc1Cl` [Example 54]: the figures for the half-maximal inhibitory concentration (IC50) on integrin α4β1 and on integrin α4β7 were 71 nM and 9.8 nM, respectively.

Take `CCOc1nc2ccc(Cl)cc2c(=O)n1-c1ccc(C[C@H](NC(=O)c2c(Cl)cccc2Cl)C(=O)O)cc1` [Example 93]: the IC50 on integrin α4β1 is 4030 nM; at integrin α4β7, 4.8 nM.

As to `O=C(N[C@@H](Cc1ccc(-n2c(=O)c3cc([N+](=O)[O-])ccc3n(C3CCCC3)c2=O)cc1)C(=O)O)c1c(Cl)cccc1Cl` [Example 60], the half-inhibitory concentration (IC50) on integrin α4β1 worked out at 780 nM; on integrin α4β7 it was 36.1 nM.

As for `CCOc1nc2cc(F)ccc2c(=O)n1-c1ccc(C[C@H](NC(=O)c2c(Cl)cccc2Cl)C(=O)O)cc1` [Example 95], the IC50 on integrin α4β1 turned out to be 960 nM; at integrin α4β7 it was 1.8 nM.

`CCn1c(=O)n(-c2ccc(C[C@H](NC(=O)c3c(Cl)cccc3Cl)C(=O)O)cc2)c(=O)c2ccccc21` [Example 3]: the IC50 on integrin α4β1 amounted to 66 nM; at integrin α4β7, 3.5 nM.

With `Cc1cccc2c(=O)n(-c3ccc(C[C@H](NC(=O)c4c(Cl)cccc4Cl)C(=O)O)cc3)c(=O)n(C)c12` [Example 186], the values for the IC50 on integrin α4β1 and at integrin α4β7 were 59 nM and 4.3 nM, respectively.

`COc1ccc2[nH]c(=O)n(-c3ccc(C[C@H](NC(=O)c4c(Cl)cccc4Cl)C(=O)O)cc3)c(=O)c2c1` [Example 48]: the half-maximal inhibitory concentration (IC50) on integrin α4β1 amounted to 1800 nM; on integrin α4β7 it was 28 nM.

Regarding `Nc1ccc2c(=O)n(-c3ccc(C[C@H](NC(=O)c4c(Cl)cccc4Cl)C(=O)O)cc3)c(=O)oc2c1` [Example 142], the half-maximal inhibitory concentration (IC50) at integrin α4β1 turned out to be 210 nM; on integrin α4β7, 9 nM.

With `COc1cc2[nH]c(=O)n(-c3ccc(C[C@H](NC(=O)c4c(Cl)cccc4Cl)C(=O)O)cc3)c(=O)c2cc1OC` [Example 51], the IC50 was found to be 1180 nM on integrin α4β1 and 30 nM on integrin α4β7.

Take `O=C(N[C@@H](Cc1ccc(-n2c(=O)[nH]c3nccnc3c2=O)cc1)C(=O)O)c1c(Cl)cccc1Cl` [Example 80]: the IC50 at integrin α4β1 was 960 nM; on integrin α4β7, 74 nM.

In the case of `Cn1c(=O)n(-c2ccc(C[C@H](NC(=O)c3c(Cl)cccc3Cl)C(=O)O)cc2)c(=O)c2c(Cl)ccc(Cl)c21` [Example 70], the half-maximal inhibitory concentration (IC50) at integrin α4β1 was determined as 34 nM; at integrin α4β7 it was 3.5 nM.

For `O=C(N[C@@H](Cc1ccc(-n2c(=O)c3cc([N+](=O)[O-])ccc3n(CC3CCCCC3)c2=O)cc1)C(=O)O)c1c(Cl)cccc1Cl` [Example 62], the IC50 on integrin α4β1 amounted to 1450 nM; on integrin α4β7, 45 nM.

On to `CCc1nc2ccccc2c(=O)n1-c1ccc(C[C@H](NC(=O)c2c(Cl)cccc2Cl)C(=O)O)cc1` [Example 32], for which the IC50 at integrin α4β1 came out at 2420 nM; on integrin α4β7 it was 64 nM.
